Assay results from patent publication US5530019A, “Indole derivatives useful as testosterone 5α-reductase inhibitors” (Fujisawa Pharmaceutical Co., Ltd., priority 1993, dated 1996).

Target: T1, testosterone 5α-reductase (Rattus norvegicus, UniProt P31214)
T1 construct: The prostates were drained, minced, and then homogenized in 3 -4 tissue volumes of medium A; from tissue; host or cells: ventral prostate of mature male Sprague-Dawley rats, resuspended 3,000 g pellet
T1 sequence (P31214 1-254): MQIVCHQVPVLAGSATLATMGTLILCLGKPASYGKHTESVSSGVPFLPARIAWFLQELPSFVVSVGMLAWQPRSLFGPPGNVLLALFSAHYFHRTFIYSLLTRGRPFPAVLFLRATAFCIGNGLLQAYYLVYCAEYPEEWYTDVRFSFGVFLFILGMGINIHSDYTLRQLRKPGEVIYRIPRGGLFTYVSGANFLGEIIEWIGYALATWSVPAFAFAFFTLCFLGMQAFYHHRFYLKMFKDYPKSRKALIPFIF
Assay: Inhibitory activity on testosterone 5α-reductase in rats (rat ventral prostate suspension, 3H-testosterone)
Type: biochemical, rat (Spraque-Dawley male rats)
Details: rat prostatic 5α-reductase; 2.2×10^-9 M testosterone, 50 μM NADPH, pH 6.5, 37° C., 30 minutes
Description: [2]Inhibitory activity on testosterone 5α-reductase in rats:
1,2,6,7-^3 H-testosterone (85-105 Ci/mmol) is a mixture of 1,2,6,7-3H-testosterone and testosterone which includes 85-105 Ci of 1,2,6,7-^3 H-testosterone per mmol of testosterone and is purchased from New England Nuclear, Boston, Mass., U.S.A.
Aquazol-2 (Aquazol-2 Universal LSC Cocktail) trademark, purchased from New England Nuclear, Boston, Mass., U.S.A. ii) Preparation of prostatic testosterone 5α-reductase
Mature Spraque-Dawley male rats (7-8 weeks old) were sacrificed by diethyl ether. The ventral prostates were dissected to be free of their capsules and their combined volume was measured by displacement in several milliliters of ice-cold medium A (0.32M sucrose, 0.1 mM dithiothreitol and 20 mM sodium phosphate, pH 6.5). Unless specified, all the following procedures were carried out at 0 -4. The prostates were drained, minced, and then homogenized in 3 -4 tissue volumes of medium A with Pyrex-glass homogenizer. […]
The reaction solution contains 1 mM dithiothreitol, 40 mM sodium phosphate pH 6.5, 50 μM NADPH, 1,2,6,7-^3 H-testosterone/testosterone (2.2×10^-9 M) and the suspension prepared above ([…]) in a total volume of 565 μl. […] The radioactivity was determined in 5 ml of Aquazol-2 in Packard scintillation counter (PACKARD TRI-CARB 4530), and an inhibitory ratio was calculated.

## CCCCCCCCCCC(=O)c1cn(CCCC(=O)O)c2ccccc12 [(1), 4-(3-Undecanoyl-1-indolyl)butyric acid]
  IC50: 0.44 nM
